Data published in patent publication US6147097A, “Imidazole derivatives as anti-HIV agents” (Shionogi & Co., Ltd., priority 1994, dated 2000).
≈ marks a conversion by molar mass, not a printed value. Structures can show the parent of a compound that is named as a salt. Where two headings read alike, the source gives them in different places.

Tests used:
[1] = tested on: MT-4 cells; assay: cytotoxicity in MT-4 cells (MTT, culture medium in place of HIV); format: cell-based; conditions: human, mt-4 cells, 120 h
Method in brief: (§1)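 Uninfected readout: compound-treated MT-4 cultures, 3.5×10^4 cells/well, received medium in place of virus and were kept 5 days at 37° C. Viability measured by 1 h MTT reduction, solubilized formazan read at 560/690 nm relative to control wells.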

[2] = tested on: HIV (HTLV-IIIB strain); assay: microbe, parasite or virus in culture; format: cell-based; conditions: Human immunodeficiency virus 1, IIIB, MT4, 120 h
Method in brief: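 Protection from virus was read as viable-cell MTT conversion to formazan after 5 days at 37° C. The cultures contained MT-4 cells (3.5×10^4/well), compound dilutions and 60 pfu HIV per well.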

[3] = cytotoxicity in MT-4 cells (MTT, culture medium in place of HIV); format: cell-based; conditions: human
Method in brief: as §1

[4] = target: T1, purified recombinant HIV-1 reverse transcriptase (Human immunodeficiency virus type 1 group M subtype B, UniProt P04585); assay: reverse transcriptase inhibition, poly(rA)/(dT) template primer, [3H]dTTP uptake; format: biochemical
T1 construct: purified recombinant HIV-1 reverse transcriptase; made in house; host or cells: Escherichia coli
Method in brief: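 Inhibition reported as percent reduction of [3H]dTTP incorporation relative to solvent control, after 1 h at 37 °C at pH 8.3. Recombinant RT from E. coli, poly(rA) template with oligo(dT) primer, 4 μM unlabeled dTTP as substrate; product collected on DEAE filter mats.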

[5] = MT-4 cells, 60 pfu HIV per well, 37° C., 5 days, MTT, Tables 1 and 2, read-out: EC50
[6] = MT-4 cells, no virus, 37° C., 5 days, MTT, Table 3, read-out: CC50

CC(O)Cn1c(CO)nc(C(C)C)c1Sc1cc(Cl)cc(Cl)c1 (stereo not shown) [Compound 141a, 5-(3,5-dichlorophenylthio)-2-hydroxymethyl-1-(2-hydroxypropyl)-4-isopropyl-1H-imidazole]
EC50 (head of Table 4; CC50 per Test Example 2) [1]: 12.5 to 25 µg/mL

CC(C)c1nc(CO)n(Cc2ccsc2)c1Sc1cc(Cl)cc(Cl)c1 [Compound I-127, 5-(3,5-dichlorophenylthio)-2-hydroxymethyl-4-isopropyl-1-(13-thienylmethyl)-1H-imidazole hydrochloride]
EC50 [2, 5]: 0.016 µg/mL | CC50 at 120 h ([3]; mt-4 cells): 12.5 to 25 µg/mL | IC50 [4]: 14.8 µM

CC(C)c1nc(CCO)n(Cc2cccc(N)c2)c1Sc1cc(Cl)cc(Cl)c1 [Compound I-141, I-(m-aminobenzyl)-5-(3,5-dichlorophenylthio)-2-hydroxyethyl-4-isopropyl-1H-imidazole]
EC50 [2, 5]: < 0.008 µg/mL | CC50 at 120 h ([3]; mt-4 cells): 25 to 50 µg/mL (≈ 57.3 to 115 µM) | IC50 [4]: 4.12 µM

CC(C)c1nc(CO)n(CCCCCCc2ccccc2)c1Sc1cc(Cl)cc(Cl)c1 [Compound I-125, 5-(3,5-dichlorophenylthio)-2-hydroxylmethyl-4-isopropyl-1-(6-phenlylhexyl)-1H-imidazole]
EC50 [2, 5]: 0.5 to 1 µg/mL (≈ 1.05 to 2.09 µM) | CC50 at 120 h ([3]; mt-4 cells): 12.5 µg/mL (≈ 26.2 µM) | IC50 [4]: > 209 µM

CC(C)c1nc(CCOC(N)=O)n(Cc2cccc(N)c2)c1Sc1cc(Cl)cc(Cl)c1 [Compound I-142, 1-(m-aminobenzyl)-2-(2-carbamoyloxyethyl)-5-(3,5-dichlorophenylthio)-4-isopropyl-1H-imidazole]
EC50 [2, 5]: 0.016 to 0.03 µg/mL (≈ 0.0334 to 0.0626 µM) | CC50 at 120 h ([3]; mt-4 cells): 6.3 to 12.5 µg/mL (≈ 13.1 to 26.1 µM) | IC50 [4]: 25 µM

CC(C)c1nc(COC(N)=O)n(C)c1Sc1cccc(Cl)c1 [Compound I-42, 2-carbamoyloxymethyl-5-(3-chlorophenylthio)-4-isopropyl-1-methyl-1H-imidazole]
EC50 [2]: 0.07 µg/mL (≈ 0.206 µM) | CC50 at 120 h ([3]; mt-4 cells): 8 µg/mL (≈ 23.5 µM) | IC50 [4]: 5 µM

CC(C)c1nc(CCOC(N)=O)n(C)c1Sc1cc(Cl)cc(Cl)c1 [Compound I-81, 2-(2-carbamoyloxy)ethyl-5-(3,5-dichlorophenylthio)-4-isopropyl-1-methyl-1H-imidazole]
EC50 [2]: 0.13 µg/mL (≈ 0.335 µM) | CC50 at 120 h [3, 6]: 10 to 100 µg/mL (≈ 25.8 to 258 µM) | IC50 [4]: 7.73 µM

CC(C)c1nc(CN(C)C)n(C)c1Sc1cc(Cl)cc(Cl)c1 [Compound I-78, 5-(3,5-dichlorophenylthio)-2-dimethylaminomethyl-4-isopropyl-1-methyl-1H-imidazole]
EC50 [2, 5]: 1 µg/mL (≈ 2.79 µM) | CC50 at 120 h [3, 6]: 1 to 10 µg/mL (≈ 2.79 to 27.9 µM) | IC50 [4]: 129 µM

CC(C)c1nc(CCCO)n(C)c1Sc1cc(Cl)cc(Cl)c1 [Compound 137a, 3-(5-(3,5-dichlorophenylthio)-4-isopropyl-1-methyl-1H-imidazol-2-yl)-propan-1-ol]
EC50 [2, 5]: 0.008 µg/mL (≈ 0.0223 µM) | CC50 at 120 h ([3]; mt-4 cells): 6.3 to 12.5 µg/mL (≈ 17.5 to 34.8 µM) | IC50 [4]: 5.57 µM

CC(C)c1nc(CCOCc2ccccc2)n(Cc2ccncc2)c1Sc1cc(Cl)cc(Cl)c1 [Compound 122b, 4-[2-(2-benzyloxyethyl)-5-(3,5-dichlorophenylthio)-4-isopropyl-1H-imidazol-1-ylmethy]pyridine]
EC50 [2, 5]: 0.5 to 1 µg/mL (≈ 0.976 to 1.95 µM) | CC50 at 120 h ([3]; mt-4 cells): 6.3 µg/mL (≈ 12.3 µM) | IC50 [4]: 71.4 µM

CCCn1c(CO)nc(C(C)C)c1Sc1cccc(Cl)c1 [Compound I-29, [5-(3-chlorophenylthio)-4-isopropyl-1-n-propyl-1H-imidazol-2-yl]methanol]
EC50 [2, 5]: 0.016 to 0.03 µg/mL (≈ 0.0492 to 0.0923 µM) | CC50 at 120 h [3, 6]: 12.5 µg/mL (≈ 38.5 µM) | IC50 [4]: 1.85 µM

CC(C)c1nc(CO)n(Cc2ccc([N+](=O)[O-])cc2)c1Sc1cc(Cl)cc(Cl)c1 [Compound 103a, 5-(3,5-dichlorophenylthio)-2-hydroxymethyl-4-isopropyl-1-(p-nitrobenzyl)-1H-imidazole]
EC50 [2, 5]: < 0.008 µg/mL | CC50 at 120 h ([3]; mt-4 cells): 6.3 to 12.5 µg/mL (≈ 13.9 to 27.6 µM) | IC50 [4]: 28.7 µM

Cc1ncccc1Cn1c(CO)nc(C(C)C)c1Sc1cc(Cl)cc(Cl)c1 [Compound 119a, 5-(3,5-dichlorophenylthio)-2-hydroxymethyl-4-isopropyl-1-(2-methylpyridin-3-ylmethyl)-1H-imidazole]
EC50 [2, 5]: < 0.008 µg/mL | CC50 at 120 h ([3]; mt-4 cells): 12.5 µg/mL (≈ 29.6 µM) | IC50 [4]: 14.7 µM

CC(C)c1nc(CN)n(C)c1Sc1cccc(Cl)c1.Cl [Compound I-69, 2-aminomethyl-5-(3-chlorophenylthio)-4-isopropyl-1-methyl-1H-imidazole hydrochloride]
EC50 [2, 5]: 0.25 µg/mL | CC50 at 120 h ([3]; mt-4 cells): 6.3 µg/mL | IC50 [4]: 6.92 µM

CC(C)c1nc(CC(N)=O)n(C)c1Sc1cc(Cl)cc(Cl)c1 [Compound I-135, 2-[5-(3,5-dichlorophenylthio)-4-isopropyl-1-methyl-1H-imidazol-2-yl] acetamide]
EC50 [2, 5]: 0.016 to 0.03 µg/mL (≈ 0.0447 to 0.0837 µM) | CC50 at 120 h ([3]; mt-4 cells): 25 to 50 µg/mL (≈ 69.8 to 140 µM) | IC50 [4]: 10.6 µM

CC(C)c1nc(CCOC(N)=O)n(Cc2cccc([N+](=O)[O-])c2)c1Sc1cc(Cl)cc(Cl)c1 [Compound 128b, 2-(2-Carbamoyloxyethyl)-5-(3,5-dichlorophenylthio)-4-isopropyl-1-(m-nitrobenzyl)-1H-i-imidazole]
EC50 [2, 5]: 0.13 µg/mL (≈ 0.255 µM) | CC50 at 120 h ([3]; mt-4 cells): 6.3 to 12.5 µg/mL (≈ 12.4 to 24.5 µM) | IC50 [4]: > 196 µM

CNC(=S)NCc1nc(C(C)C)c(Sc2cc(Cl)cc(Cl)c2)n1C [Compound I-89, 5-(3,5-dichlorophenylthio)-4-isopropyl-1-methyl-2-(N-methylthiocarbamoyl)aminomethyl-1H-imidazole]
EC50 [2, 5]: 1 µg/mL (≈ 2.48 µM) | CC50 at 120 h [3, 6]: 1 to 10 µg/mL (≈ 2.48 to 24.8 µM) | IC50 [4]: > 248 µM

CC(C)c1nc(COCCOC(N)=O)n(C)c1Sc1cc(Cl)cc(Cl)c1 [Compound I-61, (2-carbamoyloxy)ethoxymethyl-5-(3,5-dichlorophenylthio)-4-isopropyl-1-methyl-1H-imidazole]
EC50 [2, 5]: 0.5 µg/mL (≈ 1.2 µM) | CC50 at 120 h [3, 6]: 6.3 to 12.5 µg/mL (≈ 15.1 to 29.9 µM) | IC50 [4]: 185 µM

CNCc1nc(C(C)C)c(Sc2cc(Cl)cc(Cl)c2)n1C [Compound I-85, 5-(3,5-dichlorophenylthio)-4-isopropyl-1-methyl-2-methylaminomethyl-1H-imidazole]
EC50 [2, 5]: 0.13 µg/mL (≈ 0.378 µM) | CC50 at 120 h [3, 6]: 1 to 10 µg/mL (≈ 2.9 to 29 µM) | IC50 [4]: 7.55 µM

C=CCn1c(CO)nc(C(C)C)c1Sc1cccc(Cl)c1 [Compound I-17, [1-allyl-5-(3-chlorophenylthio)-4-isopropyl-1H-imidazol-2-yl]methanol]
EC50 [2, 5]: 0.005 to 0.01 µg/mL (≈ 0.0155 to 0.031 µM) | CC50 at 120 h [3, 6]: 6.3 to 12.5 µg/mL (≈ 19.5 to 38.7 µM) | IC50 [4]: < 2.48 µM

CC(C)c1nc(CO)n(CF)c1Sc1cc(Cl)cc(Cl)c1 [Compound I-34, [1-fluoromethyl-5-(3,5-dichlorophenylthio)-4-isopropyl-1H-imidazol-2-yl]methanol]
EC50 [2, 5]: 0.006 µg/mL (≈ 0.0172 µM) | CC50 at 120 h ([3]; mt-4 cells): 13.5 µg/mL (≈ 38.7 µM) | IC50 [4]: 4.01 µM

CCCn1c(COC(N)=O)nc(C(C)C)c1Sc1cccc(Cl)c1 [Compound I-54, 2-carbamoyloxymethyl-5-(3-chlorophenylthio)-4-isopropyl-1-n-propyl-1H-imidazole]
EC50 [2]: 0.004 µg/mL (≈ 0.0109 µM) | CC50 at 120 h [3, 6]: 12.5 µg/mL (≈ 34 µM) | IC50 [4]: 1.25 µM

CC(C)c1nc(CCCO)n(CCO)c1Sc1cc(Cl)cc(Cl)c1 [Compound 137d, 3-(5-(3,5-dichlorophenylthio)-1-(2-hydroxyethyl)-4-isopropyl-1H-imidazol-2-yl)-propan-1-ol]
EC50 [2, 5]: < 0.008 µg/mL | CC50 at 120 h ([3]; mt-4 cells): 6.3 to 12.5 µg/mL (≈ 16.2 to 32.1 µM) | IC50 [4]: 6.68 µM

CC(C)c1nc(COC(N)=O)n(Cc2ccccc2)c1Sc1cc(Cl)cc(Cl)c1 [Compound I-45, 1-benzyl-2-carbamoyloxymethyl-5-(3,5-dichlorophenylthio)-4-isopropyl-1H-imidazole]
EC50 [2]: 0.004 to 0.008 µg/mL (≈ 0.00888 to 0.0178 µM) | CC50 at 120 h [3, 6]: 12.5 µg/mL (≈ 27.8 µM) | IC50 [4]: 1.44 µM

Cc1cc(C)cc(Sc2c(C(C)C)nc(C)n2Cc2ccccc2)c1 [Compound I-4, 1-benzyl-5-(3,5-dimethylphenylthio)-4-isopropyl-2-methylimidazole]
EC50 [2, 5]: 0.016 µg/mL (≈ 0.0456 µM) | CC50 at 120 h [3, 6]: 12.5 µg/mL (≈ 35.7 µM) | IC50 [4]: 4.85 µM

C=CCn1c(CO)nc(C(C)C)c1Sc1cccc([N+](=O)[O-])c1 [Compound I-22, [1-allyl-4-isopropyl-5-(3-nitrophenylthio)-1H-imidazol-2-yl]methanol]
EC50 [2]: 0.002 µg/mL (≈ 0.006 µM) | CC50 at 120 h [3, 6]: 25 µg/mL (≈ 75 µM) | IC50 [4]: 1.68 µM
